# Measurements reported in patent publication US20230278972A1, “SUBSTITUTED HALOALKYL SULFONANILIDE HERBICIDES” (FMC Corporation, priority 2020, published 2023).
# Key:
# Assay type in all cases: in vivo
# corn (Zea mays) = experiment: Test A postemergence, corn; conditions: Postemergence
# Procedure, shortened: (§1)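 Postemergence ratings come from foliar sprays onto one- to two-leaf plants of 2 to 10 cm grown in loam/sand; preemergence ratings come from a directed spray onto the soil of newly seeded pots. Formulation was a surfactant-containing non-phytotoxic solvent blend.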
# [1] = test system: Ryegrass, Italian (Italian ryegrass, Lolium multiflorum); experiment: Test A preemergence, Ryegrass, Italian; conditions: Preemergence; for Plant response rating, Ryegrass, Italian: 0 to 100 scale (0 no effect, 100 complete control); for Ryegrass, Italian plant response rating: 125 g ai/ha, visual injury on 0 to 100 scale (0 no effect, 100 complete control), approximately 10 days
# Procedure, shortened: as §1
# [2] = test system: barnyardgrass (Echinochloa crus-galli); experiment: Test A postemergence, barnyardgrass; conditions: Postemergence
# Procedure, shortened: (§2)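 Seeds are sown in loam mixed with sand and sprayed on the soil surface right after planting for the preemergence test. Postemergence pots are sprayed once seedlings reach 2 to 10 cm at the one- to two-leaf stage. The same surfactant-containing, non-phytotoxic solvent formulation serves both.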
# [3] = test system: galium (catchweed bedstraw, Galium aparine); experiment: Test A postemergence, galium; conditions: Postemergence
# Procedure, shortened: as §2
# [4] = test system: pigweed (Amaranthus retroflexus); experiment: Test A preemergence, pigweed; conditions: for Plant response rating, Pigweed: 0 to 100 scale (0 no effect, 100 complete control); for Pigweed plant response rating: 125 g ai/ha, visual injury on 0 to 100 scale (0 no effect, 100 complete control), approximately 10 days
# Procedure, shortened: as §2
# [5] = test system: ragweed (common ragweed, Ambrosia artemisiifolia); experiment: Test A postemergence, ragweed; conditions: Postemergence
# Procedure, shortened: as §1
# [6] = test system: Ryegrass, Italian (Italian ryegrass, Lolium multiflorum); experiment: Test A postemergence, Ryegrass, Italian; conditions: Postemergence
# Procedure, shortened: as §1
# [7] = test system: blackgrass (Alopecurus myosuroides); experiment: Test A postemergence, blackgrass; conditions: Postemergence
# Procedure, shortened: as §1
# [8] = test system: Foxtail, Giant (giant foxtail, Setaria faberi); experiment: Test A postemergence, Foxtail, Giant; conditions: Postemergence
# Procedure, shortened: as §1
# [9] = test system: barnyardgrass (Echinochloa crus-galli); experiment: Test A preemergence, barnyardgrass; conditions: Preemergence; for Plant response rating, Barnyardgrass: 0 to 100 scale (0 no effect, 100 complete control); for Barnyardgrass plant response rating: 125 g ai/ha, visual injury on 0 to 100 scale (0 no effect, 100 complete control), approximately 10 days
# Procedure, shortened: as §1
# [10] = test system: pigweed (Amaranthus retroflexus); experiment: Test A postemergence, pigweed; conditions: Postemergence
# Procedure, shortened: as §1
# [11] = test system: wheat (Triticum aestivum); experiment: Test A postemergence, wheat; conditions: Postemergence
# Procedure, shortened: as §2
# [12] = test system: ragweed (common ragweed, Ambrosia artemisiifolia); experiment: Test A preemergence, ragweed; conditions: Preemergence; for Plant response rating, Ragweed: 0 to 100 scale (0 no effect, 100 complete control); for Ragweed plant response rating: 125 g ai/ha, visual injury on 0 to 100 scale (0 no effect, 100 complete control), approximately 10 days
# Procedure, shortened: as §1
# [13] = test system: Foxtail, Giant (giant foxtail, Setaria faberi); experiment: Test A preemergence, Foxtail, Giant; conditions: Preemergence; for Plant response rating, Foxtail, Giant: 0 to 100 scale (0 no effect, 100 complete control); for Foxtail, Giant plant response rating: 125 g ai/ha, visual injury on 0 to 100 scale (0 no effect, 100 complete control), approximately 10 days
# Procedure, shortened: as §1
# kochia (Bassia scoparia) [14] = experiment: Test A postemergence, kochia; conditions: Postemergence
# Procedure, shortened: as §1
# kochia (Bassia scoparia) [15] = experiment: Test A preemergence, kochia; conditions: Preemergence; for Plant response rating, Kochia: 0 to 100 scale (0 no effect, 100 complete control); for Kochia plant response rating: 125 g ai/ha, visual injury on 0 to 100 scale (0 no effect, 100 complete control), approximately 10 days
# Procedure, shortened: as §1
# [16] = 1000 g ai/ha, visual injury, 0 to 100 scale (0 no effect, 100 complete control), approx. 10 days
# [17] = 31 g ai/ha, visual injury on 0 to 100 scale (0 no effect, 100 complete control), approx. 10 days
# [18] = 125 g ai/ha, 0 to 100 scale (0 no effect, 100 complete control)
# [19] = 31 g ai/ha, visual injury, approx. 10 days
# [20] = 125 g ai/ha, visual injury approx. 10 days, 0 to 100 scale (0 no effect, 100 complete control)
# [21] = 500 g ai/ha, visual injury vs untreated controls after approx. 10 days, 0 to 100 scale (0 no effect, 100 complete control)
structure (smiles),measurement,setting,value
Cc1cc(C)c(C(=O)N2CCC(C(C)(C)C)CC2)cc1NS(=O)(=O)C(F)(F)F [Compound 261],"Plant response rating, Corn",corn (Zea mays); [16],10
same,"Plant response rating, Ryegrass, Italian",[1]; 1000 g ai/ha,60
same,"Plant response rating, Barnyardgrass",[2]; [16],0
same,"Plant response rating, Galium",[3]; [16],50
same,"Plant response rating, Pigweed",[4]; 1000 g ai/ha,20
same,"Plant response rating, Ragweed",[5]; [16],0
same,"Plant response rating, Ryegrass, Italian",[6]; [16],20
same,"Plant response rating, Blackgrass",[7]; [16],0
same,"Plant response rating, Foxtail, Giant",[8]; [16],0
same,"Plant response rating, Barnyardgrass",[9]; 1000 g ai/ha,60
same,"Plant response rating, Pigweed",[10]; [16],30
same,"Plant response rating, Wheat",[11]; [16],0
same,"Plant response rating, Ragweed",[12]; 1000 g ai/ha,0
same,"Plant response rating, Foxtail, Giant",[13]; 1000 g ai/ha,90
same,"Plant response rating, Kochia",kochia (Bassia scoparia) [14]; [16],0
same,"Plant response rating, Kochia",kochia (Bassia scoparia) [15]; 1000 g ai/ha,0
Cc1cc(Cl)c(NS(=O)(=O)C(F)(F)F)cc1C(=O)N1CCOCC1(C)C [Compound 153],"Plant response rating, Corn",corn (Zea mays); [17],0
same,"Plant response rating, Corn",corn (Zea mays); [18],20
same,"Plant response rating, Ryegrass, Italian",[1]; [19],30
same,"Ryegrass, Italian plant response rating",[1],70
same,"Plant response rating, Barnyardgrass",[2]; [17],10
same,"Plant response rating, Barnyardgrass",[2]; [18],50
same,"Plant response rating, Galium",[3]; [17],60
same,"Plant response rating, Galium",[3]; [18],70
same,"Plant response rating, Pigweed",[4]; [19],80
same,Pigweed plant response rating,[4],90
same,"Plant response rating, Ragweed",[5]; [17],30
same,"Plant response rating, Ragweed",[5]; [18],70
same,"Plant response rating, Ryegrass, Italian",[6]; [17],30
same,"Plant response rating, Ryegrass, Italian",[6]; [18],80
same,"Plant response rating, Blackgrass",[7]; [17],0
same,"Plant response rating, Blackgrass",[7]; [18],50
same,"Plant response rating, Foxtail, Giant",[8]; [17],10
same,"Plant response rating, Foxtail, Giant",[8]; [18],20
same,"Plant response rating, Barnyardgrass",[9]; [19],0
same,Barnyardgrass plant response rating,[9],70
same,"Plant response rating, Pigweed",[10]; [17],0
same,"Plant response rating, Pigweed",[10]; [18],30
same,"Plant response rating, Wheat",[11]; [17],0
same,"Plant response rating, Wheat",[11]; [18],30
same,"Plant response rating, Ragweed",[12]; [19],40
same,Ragweed plant response rating,[12],60
same,"Plant response rating, Foxtail, Giant",[13]; [19],40
same,"Foxtail, Giant plant response rating",[13],90
same,"Plant response rating, Kochia",kochia (Bassia scoparia) [14]; [17],0
same,"Plant response rating, Kochia",kochia (Bassia scoparia) [14]; [18],10
same,"Plant response rating, Kochia",kochia (Bassia scoparia) [15]; [19],60
same,Kochia plant response rating,kochia (Bassia scoparia) [15],80
Cc1cc(C)c(-c2cc(Br)nn(C)c2=O)cc1NS(=O)(=O)C(F)(F)F [Compound 69],"Plant response rating, Corn",corn (Zea mays); [20],10
same,Corn plant response rating,corn (Zea mays); [21],20
same,"Ryegrass, Italian plant response rating",[1],100
same,"Plant response rating, Ryegrass, Italian",[1]; 500 g ai/ha,100
same,"Plant response rating, Barnyardgrass",[2]; [20],0
same,Barnyardgrass plant response rating,[2]; [21],80
same,"Plant response rating, Galium",[3]; [20],60
same,Galium plant response rating,[3]; [21],70
same,Pigweed plant response rating,[4],80
same,"Plant response rating, Pigweed",[4]; 500 g ai/ha,100
same,"Plant response rating, Ragweed",[5]; [20],60
same,Ragweed plant response rating,[5]; [21],80
same,"Plant response rating, Ryegrass, Italian",[6]; [20],40
same,"Ryegrass, Italian plant response rating",[6]; [21],70
same,"Plant response rating, Blackgrass",[7]; [20],0
same,Blackgrass plant response rating,[7]; [21],50
same,"Plant response rating, Foxtail, Giant",[8]; [20],80
same,"Foxtail, Giant plant response rating",[8]; [21],90
same,Barnyardgrass plant response rating,[9],40
same,"Plant response rating, Barnyardgrass",[9]; 500 g ai/ha,90
same,"Plant response rating, Pigweed",[10]; [20],70
same,Pigweed plant response rating,[10]; [21],90
same,"Plant response rating, Wheat",[11]; [20],60
same,Wheat plant response rating,[11]; [21],70
same,Ragweed plant response rating,[12],50
same,"Plant response rating, Ragweed",[12]; 500 g ai/ha,90
same,"Foxtail, Giant plant response rating",[13],100
same,"Plant response rating, Foxtail, Giant",[13]; 500 g ai/ha,100
same,"Plant response rating, Kochia",kochia (Bassia scoparia) [14]; [20],40
same,Kochia plant response rating,kochia (Bassia scoparia) [14]; [21],60
same,Kochia plant response rating,kochia (Bassia scoparia) [15],70
same,"Plant response rating, Kochia",kochia (Bassia scoparia) [15]; 500 g ai/ha,90
